Assay results published in patent publication US8691768B2, “Methods of determining delta opioid receptor subtypes” (The Regents of the University of California, priority 2008, dated 2014).
Where a name gives a salt, the structure may show the parent alone. Read-outs that look alike come from different tables or passages of the source.

How the values were obtained:
[1] = tested on: chronically drinking rats; experiment: Drinking of chronically drinking rats after systemic administration; format: in vivo
Method: (§1) Male Lewis rats (Harlan Laboratories, Indianapolis, Ind.) weighing between 275-300 g were individually housed in a temperature controlled colony room (21° C.) maintained on a reversed light/dark cycle 12L:12D cycle (lights off at 10 A.M., lights on at 10 P.M.). All experiments were performed during the dark portion of the cycle. Food and water was provided ad libitum.
(§2) Ethanol was administered via a two-bottle continuous access, free-choice paradigm in which one bottle contained 10% ETOH (v/v) and the other bottle contained water. Sucrose was never added to the ethanol solution. The amount of ETOH and water consumed was measured at the same time daily (10 A.M.). […] Animals were weighed daily. Bottles were identical and their positions were counterbalanced and rotated daily. Change in drinking was calculated by subtracting the amount of drinking (mg/kg) on the day following treatment from the amount of drinking (mg/kg) on the day prior to treatment.

C57BL/6 mice [2] = experiment: Limited access 2-bottle choice drinking paradigm (water or 10% ethanol); format: in vivo; conditions: for ethanol consumption (drinking behavior): 5 mg/kg s.c. alone, 4 hour 2-bottle choice
Method: Male C57BL/6 mice (20-23 g, Taconic) were individually housed in ventilated PLEXIGLAS® cages at ambient temperature (21° C.) in a room maintained on a reversed 12L:12D cycle (lights off at 10.00, lights on at 22.00). Food and water was provided ad libitum. The mice were given time to acclimatize to the individual housing conditions and reverse light cycle before the start of the experiments. Mice were weighed weekly. All procedures were pre-approved by the Gallo Center Institutional Animal Care and Use Committee and were in accordance with National Institutes of Health Guide for the Care and Use of Laboratory Animal.
From Monday through Friday, mice were presented with a 2-bottle choice (water or 10% ethanol) for a 4 hour period (11.00-15.00) while in the dark cycle. Outside the 2-bottle choice period, all mice had unlimited access to water. All fluids were presented in 100-ml graduated glass cylinders with stainless-steel drinking spouts inserted through two grommets in front of the cage. Bottles were weighed to the nearest decigram (0.1 g) at the start and end of the 2-bottle choice period. The positions of the tubes containing water and ethanol were reversed daily to limit the effects of positional preference. Mice (9 per group) were injected with drugs subcutaneously (s.c.) on Friday 30 minutes before the start of the 2-bottle choice period.
(§3) Ethanol and sucrose solutions were prepared in tap water using 95% (vol/vol) ethanol (Gold Shield Chemical Co., Hayward, Calif., USA). Naltriben mesylate (NTB), 7-benzylidenenaltrexone maleate (BNTX) were purchased from Tocris (MO, USA). TAN-67 dihydrobromide, naltrindole hydrochloride (NTI) and naltrexone hydrochloride (NTX) were from Sigma-Aldrich (MO, USA). All compounds were dissolved in saline, with the exception of BNTX and NTB, which were dissolved in 5% DMSO. All drugs were made up immediately prior to injection and were administered s.c. at a volume of 10 ml/kg.
Baseline values were determined by taking the average of the consumption over the three days prior to injection. Statistical analysis was performed using Prism software (GraphPad, San Diego, Calif.). Significance was determined by means of one-way ANOVA or two-way ANOVA (repeated measures). A post-hoc Newman-Keuls (one-way ANOVA) or Bonferroni (two-way ANOVA) test was used when a significant overall effect was found (p<0.05). (*, p<0.05; **, p<0.01; ***, p<0.001).

[3] = numerous animal studies; cited from earlier work
[4] = clinical studies; cited from earlier work
[5] = target: delta opioid receptor (DOP-R) (rat) (UniProt P33533); experiment: cell-based or functional assay
delta opioid receptor (DOP-R) (rat), sequence (P33533 whole entry, stated change not applied): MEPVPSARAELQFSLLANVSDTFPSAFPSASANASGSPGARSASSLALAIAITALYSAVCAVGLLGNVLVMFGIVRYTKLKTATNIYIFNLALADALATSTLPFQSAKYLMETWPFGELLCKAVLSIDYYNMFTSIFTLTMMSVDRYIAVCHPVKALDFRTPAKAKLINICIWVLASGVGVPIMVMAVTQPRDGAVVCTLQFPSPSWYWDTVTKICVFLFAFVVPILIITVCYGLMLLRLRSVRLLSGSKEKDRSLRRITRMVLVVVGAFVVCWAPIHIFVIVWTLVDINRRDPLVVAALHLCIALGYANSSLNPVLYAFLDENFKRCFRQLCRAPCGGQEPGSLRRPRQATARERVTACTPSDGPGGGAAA

[6] = tested on: GABAA IPSCs in VTA neurons; experiment: Slice electrophysiology, whole-cell patch-clamp of GABAA IPSCs in VTA neurons; format: cell-based, Lewis rats; conditions: animals treated with 5 mg/kg morphine IP twice daily for 7 days
DOR = experiment: Immunocytochemistry of DOR expression in VTA tissue; format: in vivo, Lewis rats; conditions: chronic treatment, once daily 0.5 mg/kg for 20 days
Method: Materials and Methods: Male Lewis rats (250-300 g) were housed as in Example 8. In the first part of the experiment, rats received once daily injections of 0.5 mg/kg morphine for 20 days, after which they were sacrificed and the VTA tissue was examined for DOR expression. Standard immunocytochemical methods were used with a DOR-targeted antibody (SC9111) purchased from Santa Cruz Biotechnology, Inc. For electrophysiology experiments, rats received twice daily injections, 10 hours apart, of 5 mg/kg morphine IP for 7 days.

C57BL/6 mice [7] = experiment: Locomotor activity assay; format: in vivo; conditions: assayed 30 minutes after injection for 4 hours
Method: To determine the effect of DOP-R subtype-selective drugs on mouse locomotion, the following locomotor activity assay was performed. On the testing day, mice (n=8) were habituated to the locomotor boxes for 30 minutes prior to the behavioral assay. Mice were injected s.c. with vehicle (saline or 5% DMSO), 25 mg/kg TAN-67 or 6 mg/kg NTB and placed back in the locomotor boxes. Locomotor activity was assayed 30 minutes after injection for 4 hours using Accuscan Digipro activity monitors (Accuscan, Columbus, Ohio). All mice were tested during their light phase between the hours of 9.00 and 14.00. Mice were placed into custom-made acrylic boxes that were 21×21 cm and 28 cm tall. One acrylic box was used per single Accuscan monitor (Accuscan). Activity monitors were themselves housed inside sound-attenuating chambers (Med-Associates, St Albans, Vt.) equipped with lights and fans, both of which were turned on during the testing session. To eliminate variability due to handling and novelty, on the two days before the testing day, mice were habituated to the locomotor boxes for 30 minutes injected with saline and placed in the locomotor box for an additional 30 minutes.

C57BL/6 mice [8] = experiment: Sucrose intake (natural reward); conditions: mouse, in vivo
Method: as §3

[9] = tested on: Lewis rats, ventral tegmental area (VTA); experiment: Ethanol self-administration (two-bottle continuous access) after microinjection into the VTA; format: in vivo; conditions: 0.2 mM microinjected into VTA
Method: as §1, §2
Animals were anesthetized and maintained on isoflurane (0.5 l/min) as needed for the duration of surgery. Animals were placed in a stereotaxic frame and were implanted with bilateral 26-gauge stainless steel chronic guide cannulas (Plastincs One, Roanoke, Va.) into the VTA (AP, −5.8; ML, ±0.5; DV, −7.0) based on the atlas of Paxinos and Watson (1997, The rat brain in sterotaxic coordinates, compact, Ed 3. San Diego: Academic). Cannulas were secured to the skull with dental cement. At the end of the surgical procedure, animals were treated with penicillin and topical antibiotics. A stainless steel dummy cannula (Plastics One) was inserted into each guide cannula and remained in place when the guide cannulas were not in use. Animals were allowed a 1 week recovery period before behavioral testing.
Each injection was made using a 1 μl syringe (Hamilton, Reno, Nev.) attached to 20 cm of PE 50 tubing connected to a 33-gauge injection cannula (Plastics One). Microinjections of 0.5 μl volumes were given at a rate of 0.5 μl/min using a syringe pump (kd Scientific, Hollister, Mass.) into each side of the VTA, except for bicuculline injections, where 0.25 μl was injected per side. Injection cannulas extended 2 mm beyond guide cannulas and were left in place for 1 min following microinjections to minimize the backflow of drug solution. In addition to drug microinjections, physiological saline microinjections were made in every rat to measure the effect of the injection manipulation alone on drinking Drug injections were randomized and counterbalanced. Change in drinking due to drug microinjections was calculated by comparing both the previous day's consumption (“baseline”) and to saline injection. At the conclusion of the experiment, animals were anesthetized with pentobarbital and perfused intracardially through the ascending aorta with 0.1 M phosphate buffered saline followed by 10% formalin. Brains were sectioned coronally at 50 μm, mounted and stained with cresyl violet. Only animals with confirmed injection sites within the VTA were included. No behavioral differences were observed between animals with anterior compared with posterior cannula placements.
For behavioral experiments, DPDPE (10mM; Sigma, St. Louis, Mo.), TIPP-ψ (5 μM; NIDA, Bethesda, Md.), Bicuculline (1 mM; Sigma), DAMGO (0.2 mM; Sigma), and CTOP (10 mM; Tocris, Ellisville, Mo.) were prepared in physiological saline for microinjection into the VTA. For electrophysiology, all drugs were applied by bath perfusion. Stock solutions were made and diluted in artificial CSF immediately before application. All chemicals were obtained from Sigma or Tocris except TIPP-ψ, which was acquired from NIDA.
Results are presented as mean±SEM where appropriate. For behavioral data, drinking was analyzed using 24 h time points. Raw drinking data were used for paired Student's t test comparisons probing drug effects on drinking compared with baseline or saline injections, a more conservative comparison than analyzing normalized data. […]

[10] = Rewarding effect of TAN-67 (Example 4, method not given); format: in vivo; conditions: therapeutically effective dose

## COC(=O)/C=C/C(=O)N[C@@H]1CC[C@@]2(O)[C@H]3Cc4ccc(O)c5c4[C@@]2(CCN3CC2CC2)[C@H]1O5 [beta-FNA, β-funaltrexamine]
[1]
  drinking: decrease their drinking

## Oc1ccc2c3c1O[C@H]1c4[nH]c5ccccc5c4C[C@@]4(O)[C@@H](C2)N(CC2CC2)CC[C@]314 [NTI, naltrindole hydrochloride]
C57BL/6 mice [2]; 10 or 15 mg/kg s.c.
  ethanol consumption: did not alter
  ethanol preference: did not alter

## O=C1CC[C@@]2(O)[C@H]3Cc4ccc(O)c5c4[C@@]2(CCN3CC2CC2)[C@H]1O5 [NTX, naltrexone hydrochloride]
[3]
  ethanol consumption: decrease ethanol consumption
[4]
  ethanol consumption: decrease ethanol consumption
C57BL/6 mice [2]; 1.5 mg/kg s.c., 30 min before 4 hour 2-bottle choice
  ethanol consumption: decrease in ethanol consumption
C57BL/6 mice [2]
  ethanol consumption (drinking behavior): only moderate effects

## TIPP-ψ (peptide)
[5]
  evoked IPSC amplitude, decrease from baseline, antagonist alone (n=3): 6.8%
  spontaneous IPSC amplitude, decrease, antagonist alone (n=2): 2.6%
  spontaneous IPSC frequency, decrease, antagonist alone (n=2): 8.6%

## CN1CC[C@]23c4c5ccc(O)c4O[C@H]2[C@@H](O)C=C[C@H]3[C@H]1C5 [morphine]
[6]
  electrically evoked GABA release on activating DOR1: inhibits electrically evoked GABA release
DOR
  DOR expression in the VTA: increases

## Naltriben mesylate [NTB]
C57BL/6 mice [2]
  ethanol consumption (drinking behavior): no effect
C57BL/6 mice [2]; dose dependence, s.c.
  ethanol consumption: dose dependently decreased
  ethanol preference: dose dependently decreased
C57BL/6 mice [7]; 6 mg/kg s.c.
  locomotor activity compared to vehicle treated animals: did not show any significant difference
C57BL/6 mice [8]
  sucrose intake: neither TAN-67 [F(1,16)=0.057, p=0.81] nor NTB [F(1,16)=0.62, p=0.44]had an affect

## C[C@@H](NC(=O)[C@@H](N)Cc1ccc(O)cc1)C(=O)NCC(=O)N(C)[C@@H](Cc1ccccc1)C(=O)NCCO [DAMGO]
[9]
  drinking (EtOH): did not affect drinking

## CN1CCC2(c3cccc(O)c3)Cc3nc4ccccc4cc3CC2C1 (stereo not drawn) [TAN-67, 2-methyl-4 alpha alpha-(3-hydroxyphenyl)-1,2,3,4,4a,5,12,12 alpha alpha-octahydro-quinolino[2,3,3,-g]isoquinoline]
C57BL/6 mice [2]; 12.5 mg/kg s.c. alone
  ethanol consumption: no effect
C57BL/6 mice [2]; dose dependence, s.c.
  ethanol consumption: dose-dependent decrease
  ethanol preference: dose-dependent decrease
[10]
  rewarding by itself: not rewarding
C57BL/6 mice [7]; 25 mg/kg s.c.
  locomotor activity compared to vehicle treated animals: did not show any significant difference
C57BL/6 mice [8]
  sucrose intake: neither TAN-67 [F(1,16)=0.057, p=0.81] nor NTB [F(1,16)=0.62, p=0.44]had an affect

## (2-D-penicillamine, 5-D-penicillamine)-enkephalin (DPDPE) (peptide)
[5]
  saturating dose for inhibition of evoked IPSCs (dose-response in the presence of 1 µM CTAP): 1 µM
